Activity calls are given as the source filed them. The rule behind the calls is not given here.
Experiments:
[1] = Cytotoxicity against human H1299 cells assessed as growth inhibition after 48 hrs by MTT assay; format: functional, cell-based; settings: NCI-H1299, 48 h
[2] = target: T1, Solute carrier family 2, facilitated glucose transporter member 1 (Homo sapiens, UniProt P11166); assay: Inhibition of GLUT1 in human H1299 cells assessed as inhibition of 2-deoxy-D-[3H]-glucose uptake incubated for 15 mins prior to 2-deoxy-D-[3H]-glucose addition measured after 30 mins by liquid scintillation counting analysis; format: cell-based
T1 sequence (P11166 whole entry): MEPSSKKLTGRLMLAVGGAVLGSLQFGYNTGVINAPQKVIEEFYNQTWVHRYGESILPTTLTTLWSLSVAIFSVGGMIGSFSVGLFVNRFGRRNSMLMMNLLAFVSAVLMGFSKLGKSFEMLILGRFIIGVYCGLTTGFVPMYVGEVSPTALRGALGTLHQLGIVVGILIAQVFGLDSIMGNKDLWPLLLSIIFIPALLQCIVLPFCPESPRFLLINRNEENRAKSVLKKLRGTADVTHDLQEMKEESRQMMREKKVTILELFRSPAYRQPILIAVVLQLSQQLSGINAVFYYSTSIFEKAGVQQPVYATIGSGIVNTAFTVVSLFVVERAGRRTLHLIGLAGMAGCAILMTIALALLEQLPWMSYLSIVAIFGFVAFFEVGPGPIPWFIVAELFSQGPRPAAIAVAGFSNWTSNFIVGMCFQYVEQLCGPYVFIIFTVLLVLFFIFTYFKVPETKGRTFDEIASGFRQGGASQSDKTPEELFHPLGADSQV

[3] = target: T2, Solute carrier family 2, facilitated glucose transporter member 1 (Homo sapiens) (UniProt P11166); assay: Inhibition of GLUT1 in human H1299 cells assessed as inhibition of 2-deoxy-D-[3H]-glucose uptake at 30 uM incubated for 15 mins prior to 2-deoxy-D-[3H]-glucose addition measured after 30 mins by liquid scintillation counting analysis; format: cell-based
T2 sequence (whole entry): T1 sequence (P11166 whole entry)

[4] = target: T3, Estrogen receptor (Homo sapiens, UniProt P03372); assay: Binding affinity to human estrogen receptor assessed as decrease in estradiol-dependent beta-galactosidase activity
T3 sequence (P03372 whole entry): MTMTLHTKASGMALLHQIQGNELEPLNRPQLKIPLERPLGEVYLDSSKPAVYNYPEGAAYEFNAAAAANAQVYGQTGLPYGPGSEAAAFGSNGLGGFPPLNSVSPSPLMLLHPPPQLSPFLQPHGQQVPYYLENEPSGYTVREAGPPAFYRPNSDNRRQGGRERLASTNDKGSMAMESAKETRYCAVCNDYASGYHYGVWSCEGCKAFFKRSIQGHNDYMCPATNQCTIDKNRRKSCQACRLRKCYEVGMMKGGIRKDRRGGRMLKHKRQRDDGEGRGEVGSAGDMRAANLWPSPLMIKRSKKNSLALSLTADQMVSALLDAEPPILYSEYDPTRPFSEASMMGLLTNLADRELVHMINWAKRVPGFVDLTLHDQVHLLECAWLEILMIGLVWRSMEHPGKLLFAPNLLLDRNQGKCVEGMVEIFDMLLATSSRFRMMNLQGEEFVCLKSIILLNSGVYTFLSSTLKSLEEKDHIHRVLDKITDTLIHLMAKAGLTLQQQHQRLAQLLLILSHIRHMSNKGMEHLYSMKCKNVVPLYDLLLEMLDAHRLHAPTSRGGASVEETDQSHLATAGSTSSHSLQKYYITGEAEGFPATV

[5] = target: Estrogen receptor beta (Homo sapiens, UniProt Q92731); assay: Displacement of [3H]E2 from full-length human ERbeta after 18 to 24 hrs by radiometric assay
Sequence of Estrogen receptor beta (Q92731 whole entry): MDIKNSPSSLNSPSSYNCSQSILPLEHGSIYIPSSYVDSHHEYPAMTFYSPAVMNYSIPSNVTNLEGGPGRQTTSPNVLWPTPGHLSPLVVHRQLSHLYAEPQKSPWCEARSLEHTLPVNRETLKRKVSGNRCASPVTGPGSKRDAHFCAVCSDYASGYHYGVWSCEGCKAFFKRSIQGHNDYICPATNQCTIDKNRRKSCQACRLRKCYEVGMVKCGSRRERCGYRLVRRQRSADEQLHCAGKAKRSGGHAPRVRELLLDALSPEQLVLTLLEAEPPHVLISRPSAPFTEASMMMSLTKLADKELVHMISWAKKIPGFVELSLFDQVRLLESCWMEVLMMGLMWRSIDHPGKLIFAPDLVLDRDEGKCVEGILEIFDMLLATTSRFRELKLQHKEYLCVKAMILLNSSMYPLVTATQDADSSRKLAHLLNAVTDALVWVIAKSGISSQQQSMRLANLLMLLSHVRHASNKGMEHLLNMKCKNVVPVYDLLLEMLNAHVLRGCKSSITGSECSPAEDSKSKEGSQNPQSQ

[6] = system: NCI-H1299; assay: Cytotoxicity against human H1299 cells assessed as growth inhibition at 30 uM after 48 hrs by MTT assay; format: functional, cell-based

C/C(=N\O)c1ccc(-c2ccc(O)cc2)c(Cl)c1O
IC50 [1]: 34.8 µM | IC50 [2]: 10.6 µM

O/N=C/c1c(O)ccc(-c2ccc(O)cc2)c1Cl
inhibition [3]: Active

N#Cc1c(-c2ccc(O)cc2)ccc(/C=N/O)c1O
inhibition [3]: Active

O=C(Oc1cccc(F)c1OC(=O)c1cccc(O)c1)c1cccc(O)c1
IC50 [1]: 20.4 µM | IC50 [2]: 10.9 µM

C/C(=N\O)c1ccc(-c2ccc(O)c(F)c2)c(Cl)c1O
inhibition [3]: Active

COc1ccc(-c2ccc(O)c(/C=N/O)c2)cc1
IC50 [1]: 20.4 µM | IC50 [2]: 23.4 µM

O=C(CCc1ccc(O)cc1)c1c(O)cc(O)cc1O [PHLORETIN]
IC50 [4]: 0.3 µM | IC50 [1]: 54 µM | IC50 [2]: 21.4 µM

O/N=C/c1c(O)ccc(-c2ccc(O)cc2)c1-c1ccc(O)cc1
inhibition [3]: Active

COc1ccc(-c2ccc(/C(C)=N/O)c(O)c2Cl)cc1F
IC50 [1]: 39.6 µM | IC50 [2]: 15.5 µM

O/N=C/c1cc(-c2ccc(O)cc2)ccc1O
inhibition [3]: Active

O/N=C/c1c(O)ccc(-c2ccc(O)c(F)c2)c1Cl
inhibition [3]: Active

COc1ccc(-c2ccc(O)c(/C=N/O)c2)cc1F
IC50 [1]: 14.1 µM | IC50 [2]: 8.5 µM

O/N=C/c1cc(-c2ccc(O)c(F)c2)ccc1O
Kd [5]: 0.051 µM | growth inhibition (GI) [6]: Active | inhibition [3]: Active

COc1ccc(-c2ccc(/C=N/O)c(O)c2C)cc1
inhibition [3]: Active

Cc1c(-c2ccc(O)cc2)ccc(/C=N/O)c1O
inhibition [3]: Active
